The record followed here is the supplement of paper PMC4723716.

The structures appear in SMILES notation. Structures can show the parent of a compound that is named as a salt.

The assay has as its system Plasmodium falciparum NF54 gametocytes. Particulars: 384, incubation time: 72 h. As to the method: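 Known antimalarials and MMV control compounds in dose response against each stage (I–V) […] The fitted EC50 is reported as IC50 in µM; '>' marks the top dose reached without a curve.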
Setting [1] is: gametocyte stage: Stage I Dose Response IC50 (µM), assay protocol: SaLSSA.
Where [2] appears, read: gametocyte stage: Stage II Dose Response IC50 (µM), assay protocol: SaLSSA.
Where [3] appears, read: gametocyte stage: Stage III Dose Response IC50 (µM), assay protocol: SaLSSA.
[4] abbreviates: gametocyte stage: Stage IV Dose Response IC50 (µM), assay protocol: SaLSSA.
The mark [5] stands for this setting: gametocyte stage: Stage V Dose Response IC50 (µM), assay protocol: SaLSSA.
Where [6] appears, read: gametocyte stage: Stage I Dose Response IC50 (µM), assay protocol: TSSA.
[7] abbreviates: gametocyte stage: Stage II Dose Response IC50 (µM), assay protocol: TSSA.
Where [8] appears, read: gametocyte stage: Stage III Dose Response IC50 (µM), assay protocol: TSSA.
Where [9] appears, read: gametocyte stage: Stage IV Dose Response IC50 (µM), assay protocol: TSSA.
Where [10] appears, read: gametocyte stage: Stage V Dose Response IC50 (µM), assay protocol: TSSA.

Take `C(CN1CCOCC1)Oc2ccc(cc2)[C@@H]3CC[C@@]4(CC3)OO[C@@]5(O4)[C@@H]6CC7C[C@@H](CC5C7)C6` [OZ 439 mesylate]: the “IC50 of gametocyte viability” value under setting [1] was determined as 0.0107 µM; the “IC50 of gametocyte viability” value under setting [2] was 0.00536 µM; the “IC50 of gametocyte viability” value under setting [3] stood at 0.00342 µM; the “IC50 of gametocyte viability” value under setting [4] came out at 0.0019 µM; the “IC50 of gametocyte viability” value under setting [5] was greater than 12.5 µM.
As for `c1cc([C@H]2CC[C@]3(CC2)OO[C@]2(O3)C3CC4CC(C3)CC2C4)ccc1OCCN1CCOCC1` [OZ 439 mesylate], the “IC50 of gametocyte viability” value runs as follows: under setting [6], 0.0102 µM; under setting [7], 0.01 µM; under setting [8], 0.00852 µM; under setting [9], 0.00553 µM; under setting [10], greater than 12.5 µM.
Regarding `CCc1nc(N)nc(N)c1OCCCOc1ccccc1CCC(=O)O` [P218.HCl], the “IC50 of gametocyte viability” value by setting is: under setting [1], greater than 12.5 µM; under setting [2], greater than 12.5 µM; under setting [3], greater than 12.5 µM; under setting [4], greater than 12.5 µM; under setting [5], greater than 12.5 µM.
In the case of `CCN(CC)CCCC(C)Nc1cc(OC)cc2cccnc12` (stereo not given) [Pamaquine (diethlyprimaquine)], the “IC50 of gametocyte viability” value by setting is: under setting [1], 1.68 µM; under setting [6], 1.67 µM; under setting [2], 1.4 µM; under setting [7], 2.87 µM; under setting [3], 2.41 µM; under setting [8], 5.15 µM. In addition, the “IC50 of gametocyte viability” value is 2.82 µM under setting [4], 5.28 µM under setting [9], 2.53 µM under setting [5] and 9.38 µM under setting [10].
As for `N=C(N)c1ccc(OCCCCCOc2ccc(C(=N)N)cc2)cc1` [Pentamidine] [listing 1 of 2 here], the “IC50 of gametocyte viability” value reads like this: under setting [6], 0.713 µM; under setting [7], 0.878 µM; under setting [8], 1.19 µM; under setting [9], 1 µM; under setting [10], 2.36 µM.
Consider `N=C(N)c1ccc(OCCCCCOc2ccc(C(=N)N)cc2)cc1` [Pentamidine] [listing 2 of 2 here], for which the “IC50 of gametocyte viability” value by setting is: under setting [1], 0.397 µM; under setting [2], 0.591 µM; under setting [3], 0.697 µM; under setting [4], 0.813 µM; under setting [5], 2.14 µM.
For `Clc1ccc2c(N3CCN(CCCN4CCN(c5ccnc6cc(Cl)ccc56)CC4)CC3)ccnc2c1` [Piperaquine phosphate] [listing 1 of 2 here], the “IC50 of gametocyte viability” value under setting [6] is 0.0223 µM; the “IC50 of gametocyte viability” value under setting [7] worked out at 0.0262 µM; the “IC50 of gametocyte viability” value under setting [8] is greater than 4.17 µM; the “IC50 of gametocyte viability” value under setting [9] was greater than 4.17 µM; the “IC50 of gametocyte viability” value under setting [10] is greater than 4.17 µM.
For `Clc1ccc2c(N3CCN(CCCN4CCN(c5ccnc6cc(Cl)ccc56)CC4)CC3)ccnc2c1` [Piperaquine phosphate] [listing 2 of 2 here], the “IC50 of gametocyte viability” value runs as follows: under setting [1], 0.018 µM; under setting [2], 0.0145 µM; under setting [3], 0.031 µM; under setting [4], greater than 4.17 µM; under setting [5], greater than 4.17 µM.
As for `COc1cc(NC(C)CCCN)c2ncccc2c1` (stereo not given) [Primaquine], the “IC50 of gametocyte viability” value runs as follows: under setting [1], 2.47 µM; under setting [6], 3.35 µM; under setting [2], 2.25 µM; under setting [7], 6.41 µM; under setting [3], 5.4 µM; under setting [8], 7.96 µM. The “IC50 of gametocyte viability” value was 5.15 µM under setting [4], 9.44 µM under setting [9], 6.5 µM under setting [5] and greater than 11.3 µM under setting [10].
Take `COc1ccc2nc3cc(Cl)ccc3c(Nc3cc(CN4CCCC4)c(O)c(CN4CCCC4)c3)c2n1` [Pyronaridine phosphate] [listing 1 of 2 here]: the “IC50 of gametocyte viability” value is, setting by setting: under setting [6], 0.0101 µM; under setting [7], 0.0125 µM; under setting [8], 0.315 µM; under setting [9], 3.82 µM; under setting [10], 3.16 µM.
Turning to `COc1ccc2nc3cc(Cl)ccc3c(Nc3cc(CN4CCCC4)c(O)c(CN4CCCC4)c3)c2n1` [Pyronaridine phosphate] [listing 2 of 2 here], the “IC50 of gametocyte viability” value under setting [1] worked out at 0.0132 µM; the “IC50 of gametocyte viability” value under setting [2] turned out to be 0.01 µM; the “IC50 of gametocyte viability” value under setting [3] came to 0.125 µM; the “IC50 of gametocyte viability” value under setting [4] stood at 2.58 µM; the “IC50 of gametocyte viability” value under setting [5] is 2.08 µM.
Take `C=C[C@H]1CN2CC[C@H]1C[C@@H]2[C@@H](O)c1ccnc2ccc(OC)cc12` [Quinidine] [listing 1 of 2 here]: the “IC50 of gametocyte viability” value is, setting by setting: under setting [6], 0.18 µM; under setting [7], 0.275 µM; under setting [8], 2.83 µM; under setting [9], greater than 12.5 µM; under setting [10], greater than 12.5 µM.
For the compound `C=C[C@H]1CN2CC[C@H]1C[C@@H]2[C@@H](O)c1ccnc2ccc(OC)cc12` [Quinidine] [listing 2 of 2 here], the “IC50 of gametocyte viability” value was 0.138 µM under setting [1]; 0.208 µM under setting [2]; greater than 9.17 µM under setting [3]; greater than 12.5 µM under setting [4]; greater than 11.8 µM under setting [5].
In the case of `C=C[C@H]1CN2CC[C@H]1C[C@H]2[C@H](O)c1ccnc2ccc(OC)cc12` [Quinine sulfate dihydrate (coeff. 2)], the “IC50 of gametocyte viability” value reads like this: under setting [6], 0.918 µM; under setting [7], 0.767 µM; under setting [8], 1.58 µM; under setting [9], greater than 12.5 µM; under setting [10], greater than 12.5 µM.
With `C=C[C@H]1CN2CC[C@@H]1C[C@H]2[C@H](O)c1ccnc2ccc(OC)cc12` [Quinine sulfate dihydrate (coeff. 2)], the “IC50 of gametocyte viability” value runs as follows: under setting [1], 0.44 µM; under setting [2], 0.496 µM; under setting [3], greater than 8.77 µM; under setting [4], greater than 12.5 µM; under setting [5], greater than 8.86 µM.
As to `Nc1ccc(S(=O)(=O)Nc2ncccn2)cc1` [Sulfadiazine] [listing 1 of 2 here], the “IC50 of gametocyte viability” value is greater than 12.5 µM under setting [6]; greater than 12.5 µM under setting [7]; greater than 12.5 µM under setting [8]; greater than 12.5 µM under setting [9]; greater than 12.5 µM under setting [10].
Regarding `Nc1ccc(S(=O)(=O)Nc2ncccn2)cc1` [Sulfadiazine] [listing 2 of 2 here], the “IC50 of gametocyte viability” value under setting [1] is greater than 12.5 µM; the “IC50 of gametocyte viability” value under setting [2] is greater than 12.5 µM; the “IC50 of gametocyte viability” value under setting [3] was greater than 12.5 µM; the “IC50 of gametocyte viability” value under setting [4] is greater than 12.5 µM; the “IC50 of gametocyte viability” value under setting [5] was greater than 12.5 µM.
Regarding `COc1ncnc(NS(=O)(=O)c2ccc(N)cc2)c1OC` [Sulfadoxine], the “IC50 of gametocyte viability” value runs as follows: under setting [1], greater than 12.5 µM; under setting [2], greater than 12.5 µM; under setting [3], greater than 12.5 µM; under setting [4], greater than 12.5 µM; under setting [5], greater than 12.5 µM.
On to `Cc1cc(NS(=O)(=O)c2ccc(N)cc2)no1` [Sulfamethoxazole] [listing 1 of 2 here], for which the “IC50 of gametocyte viability” value under setting [6] was greater than 12.5 µM; the “IC50 of gametocyte viability” value under setting [7] was greater than 12.5 µM; the “IC50 of gametocyte viability” value under setting [8] was greater than 12.5 µM; the “IC50 of gametocyte viability” value under setting [9] was greater than 12.5 µM; the “IC50 of gametocyte viability” value under setting [10] was greater than 12.5 µM.
Take `Cc1cc(NS(=O)(=O)c2ccc(N)cc2)no1` [Sulfamethoxazole] [listing 2 of 2 here]: the “IC50 of gametocyte viability” value reads like this: under setting [1], greater than 12.5 µM; under setting [2], greater than 12.5 µM; under setting [3], greater than 12.5 µM; under setting [4], greater than 12.5 µM; under setting [5], greater than 12.5 µM.
For `COc1cc(C)c2c(Oc3cccc(C(F)(F)F)c3)c(OC)cc(NC(C)CCCN)c2n1` (stereo not given) [Tafenoquine] [listing 1 of 2 here], the “IC50 of gametocyte viability” value by setting is: under setting [6], 5.3 µM; under setting [7], 7.55 µM; under setting [8], 7.03 µM; under setting [9], 6.87 µM; under setting [10], 0.919 µM.
Take `COc1cc(C)c2c(Oc3cccc(C(F)(F)F)c3)c(OC)cc(NC(C)CCCN)c2n1` (stereo not given) [Tafenoquine] [listing 2 of 2 here]: the “IC50 of gametocyte viability” value under setting [1] was found to be 4.56 µM; the “IC50 of gametocyte viability” value under setting [2] is 3.68 µM; the “IC50 of gametocyte viability” value under setting [3] came out at 3.74 µM; the “IC50 of gametocyte viability” value under setting [4] turned out to be 3.48 µM; the “IC50 of gametocyte viability” value under setting [5] is 2.45 µM.
With `CN(C)[C@@H]1C(O)=C(C(N)=O)C(=O)[C@@]2(O)C(O)=C3C(=O)c4c(O)cccc4[C@@](C)(O)[C@H]3C[C@@H]12` [Tetracycline], the “IC50 of gametocyte viability” value was greater than 12.5 µM under setting [1]; greater than 12.5 µM under setting [2]; greater than 12.5 µM under setting [3]; greater than 12.5 µM under setting [4]; greater than 12.5 µM under setting [5].
For the compound `C=C(NC(=O)C(=C)NC(=O)c1csc(C2=N[C@@H]3c4csc(n4)[C@H]4NC(=O)c5csc(n5)[C@H]([C@](C)(O)[C@@H](C)O)NC(=O)[C@H]5CSC(=N5)/C(=C/C)NC(=O)[C@H]([C@@H](C)O)NC(=O)c5csc(n5)[C@]3(CC2)NC(=O)[C@H](C)NC(=O)C(=C)NC(=O)[C@H](C)NC(=O)[C@H]([C@@H](C)CC)N[C@@H]2C=Cc3c([C@H](C)O)cc(nc3[C@H]2O)C(=O)O[C@@H]4C)n1)C(N)=O` [Thiostrepton], the “IC50 of gametocyte viability” value is 4.04 µM under setting [6]; 4.81 µM under setting [7]; 3.75 µM under setting [8]; 3.41 µM under setting [9]; 3.42 µM under setting [10].
